Experimental findings from ChEMBL document CHEMBL1781964, “Exploring molecular shape analysis of styrylquinoline derivatives as HIV-1 integrase inhibitors” (Eur J Med Chem, 2008) are described below.

The target in this experiment is Human immunodeficiency virus type 1 integrase (Human immunodeficiency virus 1, UniProt Q7ZJM1). The experiment is described as follows: Inhibition of HIV1 integrase 3' processing activity.
Chain of Human immunodeficiency virus type 1 integrase (Q7ZJM1 whole entry): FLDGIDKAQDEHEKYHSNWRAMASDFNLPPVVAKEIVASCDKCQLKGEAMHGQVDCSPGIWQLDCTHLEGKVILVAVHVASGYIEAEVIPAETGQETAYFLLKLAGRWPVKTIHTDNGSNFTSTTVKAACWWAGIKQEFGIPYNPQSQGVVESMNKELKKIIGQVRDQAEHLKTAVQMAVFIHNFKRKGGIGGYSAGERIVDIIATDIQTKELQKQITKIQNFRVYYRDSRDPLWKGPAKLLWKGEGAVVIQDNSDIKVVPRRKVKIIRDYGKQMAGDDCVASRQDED
With `Oc1cccc2ccc(/C=C/c3ccccc3)nc12`, the IC50 is 100 µM.
With `O=[N+]([O-])c1cccc2ccc(/C=C/c3ccc(O)c(O)c3)nc12` the figure was 100 µM; with `Cc1ccc2cccc(O)c2n1` [8-HYDROXY QUINALDINE], 100 µM; with `Cc1cc(/C=C/c2ccc3ccc(C(=O)O)c(O)c3n2)ccc1O`, 2.82 µM.
Molecule `Oc1ccc(/C=C/c2ccc3ccccc3n2)cc1O` had an IC50 of 100 µM. Against the preceding molecule, the IC50 is about 35-fold higher.
`Oc1cccc2ccc(/C=C/c3ccc4cccc(O)c4n3)nc12` had an IC50 of 100 µM.
With `CC(=O)Oc1cccc2ccc(/C=C/c3ccccc3)nc12` the figure was 100 µM; with `COC(=O)c1ccc2ccc(/C=C/c3ccc(O)c(O)c3)nc2c1O`, 100 µM; with `Cc1ccc2cccc(OC(=O)/C=C/c3ccc(O)c(O)c3)c2n1`, 100 µM.
Turning to `O=C(O)c1ccc2ccc(/C=C/c3ccc(O)c(O)c3O)nc2c1O`, the IC50 was 0.302 µM. Compared with the last molecule, the IC50 is about 330-fold lower.
`CC(=O)Oc1ccc(/C=C/c2ccc3cccc(OC(C)=O)c3n2)cc1OC(C)=O`: the IC50 was 100 µM.
Consider `Oc1ccc(/C=C/c2ccc3c(Cl)cc(Cl)c(O)c3n2)cc1O`, for which the IC50 was 100 µM.
With `Nc1cccc2ccc(/C=C/c3ccc(O)c(O)c3)nc12`, the IC50 is 100 µM.
`Cc1ccc2ccc(C(=O)O)c(O)c2n1`: half-maximal inhibition (IC50) required 100 µM.
With `COc1ccc(/C=C/C(=O)Oc2cccc3ccc(C)nc23)cc1OC` the figure was 100 µM.

By IC50 is commonly meant the concentration at which inhibition is half-maximal.
